Consider one compound from article PMC5607081 (2017).

For the assay, the system named is target DNA; 23-bp duplex DNA oligo (DNA, duplex) GCGAATAAGAGGAAGTGAAACCG/CGGTTTCACTTCCTCTTATTCGC
In words: fluorescence polarization titration. The conditions noted are these: 0.20 M NaCl; 10 mM TrisHCl, pH 7.5, 25°C, H2O, no osmolyte; apparent. Background: Fluorescence polarisation rises when a labelled molecule tumbles more slowly, as on binding a larger partner.

Molecules are shown by their SMILES.

Consider `N=C(N)c1ccc2[nH]c(-c3ccc(-c4nc5cc(C(=N)N)ccc5[nH]4)[se]3)nc2c1`, for which the “−log (Kd, M)” value is listed as 9.90 ± 0.12 −log M.
